From patent US20260306680A1, “RADIOLABELED COMPOUNDS TARGETING THE PROSTATE-SPECIFIC MEMBRANE ANTIGEN” (PROVINCIAL HEALTH SERVICES AUTHORITY, priority 2022, published 2026)
Where two headings read alike, the source gives them in different places.

How the values were obtained:
LNCaP tumor xenografts = test: Ex vivo biodistribution in mice bearing LNCaP tumor xenografts; parameters: species or system mouse (male NOD-scid IL2Rg^null (NSG)); conditions: mean ± SD
Protocol: (§1) All imaging and biodistribution studies used male NOD-scid IL2Rg^null (NSG) mice and conducted according to the guidelines established by the Canadian Council on Animal Care and approved by Animal Ethics Committee of the University of British Columbia. For tumor inoculations, mice were anesthetized via inhalation of 2% isoflurane in oxygen and implanted subcutaneously with 5×10^6 LNCaP cells below the left shoulder. Imaging and biodistribution studies were performed only after tumors grew to 5-8 mm in diameter.
(§2) For PET/CT imaging studies, approximately 5 MBq of the ^18F-labeled tracer was injected through the tail vein. While for ex vivo biodistribution studies, mice were injected with around 2 MBq of the ^18F-labeled tracer through the tail vein. Mice were allowed to recover and roam freely in the cages after injecting the tracer. At 45 min post-injection, imaging mouse were sedated again and positioned on the scanner. A 10 min CT scan was conducted first to allow for localization and attenuation correction for later reconstruction of PET images. A 10 min PET image was acquired following CT scan. Heating pads were used during the entire procedure to keep the mice warm and circulate the blood. At 1 h post-injection, all mice for biodistribution study were euthanized with blood drawn from heart, and all tissues of interest were collected, rinsed with PBS, blotted dry, weighed, and counted using an automated gamma counter. The uptake in each organ/tissue was normalized to the injected dose and expressed as the percentage of the injected dose per gram of tissue (% ID/g).
(§3) Representative maximum intensity projection PET images of ^18F-KLF1007-pyridine-BF3 and ^18F-KL01040 acquired at 1 h post-injection from LNCaP tumor-bearing mice is enumerated in Table 4 and shown in FIG. 1. Representative maximum intensity projection PET images of ^18F-KL01120 and ^18F-KL01130 acquired at 1 h post-injection from LNCaP tumor-bearing mice is also enumerated in Table 5 and shown in FIG. 2 (^18F-KL1120) and enumerated in Table 6 and shown in FIG. 3 (^18F-KL01130).

[1] = as above; parameters: species or system mouse (male NOD-scid IL2Rg^null (NSG)); conditions: mouse, iv, mean ± SD
Protocol: as §1, §2, §3

[2] = tested on: glutamate carboxypeptidase II; conditions: reduces sensitivity for detecting metastatic lesions in liver; cited from earlier work
[3] = 1 h Blocked (co-injection of 2-PMPA, 0.5 mg)
[4] = adrenal glands, 1 h post-injection, read-out: Adrenal Glands uptake
[5] = blood, 1 h post-injection, read-out: Blood uptake
[6] = bone, 1 h post-injection, read-out: Bone uptake
[7] = brain, 1 h post-injection, read-out: Brain uptake
[8] = fat, 1 h post-injection, read-out: Fat uptake
[9] = heart, 1 h post-injection, read-out: Heart uptake
[10] = kidneys, 1 h post-injection, read-out: Kidneys uptake
[11] = lacrimal glands, 1 h post-injection, read-out: Lacrimal Glands uptake
[12] = liver, 1 h post-injection, read-out: Liver uptake
[13] = lncap tumor, 1 h post-injection, read-out: LNCaP Tumor uptake
[14] = lungs, 1 h post-injection, read-out: Lungs uptake
[15] = muscle, 1 h post-injection, read-out: Muscle uptake
[16] = pancreas, 1 h post-injection, read-out: Pancreas uptake
[17] = salivary glands, 1 h post-injection, read-out: Salivary Glands uptake
[18] = seminal glands, 1 h post-injection, read-out: Seminal Glands uptake
[19] = small intestine, 1 h post-injection, read-out: Small Intestine uptake
[20] = spleen, 1 h post-injection, read-out: Spleen uptake
[21] = stomach, 1 h post-injection, read-out: Stomach uptake
[22] = testes, 1 h post-injection, read-out: Testes uptake
[23] = thyroid, 1 h post-injection, read-out: Thyroid uptake

O=C(O)CCC[C@H](NC(=O)N[C@@H](CCCCNC(=O)[C@H](Cc1c2ccccc2cc2ccccc12)NC(=O)[C@H]1CC[C@H](CNC(=O)CNC(=O)[C@H](CCCCNC(=O)c2ccc(F)nc2)NC(=O)CN(CC(=O)O)CC(=O)O)CC1)C(=O)O)C(=O)O [^18F-KL01130]
Tumor:Muscle uptake ratio (LNCaP tumor xenografts; [3]): 10.4 ± 1.31
Tumour:Blood uptake ratio (LNCaP tumor xenografts; [3]): 1.19 ± 0.12
Tumour:Bone uptake ratio (LNCaP tumor xenografts; [3]): 3.89 ± 1.05
Tumour:Kidney uptake ratio (LNCaP tumor xenografts; [3]): 0.44 ± 0.05
Tumor:Muscle uptake ratio (LNCaP tumor xenografts; 1 h post-injection): 35.7 ± 5.75
Tumour:Blood uptake ratio (LNCaP tumor xenografts; 1 h post-injection): 6.93 ± 1.54
Tumour:Bone uptake ratio (LNCaP tumor xenografts; 1 h post-injection): 14.6 ± 4.27
Tumour:Kidney uptake ratio (LNCaP tumor xenografts; 1 h post-injection): 0.59 ± 0.35
tissue uptake at 1 h ([1]; adrenal glands, 1 h Blocked (co-injection of 2-PMPA, 0.5 mg), read-out: Adrenal Glands uptake): 0.39 ± 0.17 %ID/g
tissue uptake at 1 h [1, 4]: 0.59 ± 0.06 %ID/g
tissue uptake at 1 h ([1]; blood, 1 h Blocked (co-injection of 2-PMPA, 0.5 mg), read-out: Blood uptake): 1.78 ± 0.12 %ID/g
tissue uptake at 1 h [1, 5]: 1.2 ± 0.26 %ID/g
tissue uptake at 1 h ([1]; bone, 1 h Blocked (co-injection of 2-PMPA, 0.5 mg), read-out: Bone uptake): 0.57 ± 0.16 %ID/g
tissue uptake at 1 h [1, 6]: 0.52 ± 0.17 %ID/g
tissue uptake at 1 h ([1]; brain, 1 h Blocked (co-injection of 2-PMPA, 0.5 mg), read-out: Brain uptake): 0.04 %ID/g
tissue uptake at 1 h [1, 7]: 0.04 ± 0.01 %ID/g
tissue uptake at 1 h ([1]; fat, 1 h Blocked (co-injection of 2-PMPA, 0.5 mg), read-out: Fat uptake): 0.33 ± 0.1 %ID/g
tissue uptake at 1 h [1, 8]: 0.22 ± 0.09 %ID/g
tissue uptake at 1 h ([1]; heart, 1 h Blocked (co-injection of 2-PMPA, 0.5 mg), read-out: Heart uptake): 0.45 ± 0.05 %ID/g
tissue uptake at 1 h [1, 9]: 0.34 ± 0.07 %ID/g
tissue uptake at 1 h ([1]; kidneys, 1 h Blocked (co-injection of 2-PMPA, 0.5 mg), read-out: Kidneys uptake): 4.77 ± 0.3 %ID/g
tissue uptake at 1 h [1, 10]: 19 ± 5.04 %ID/g
tissue uptake at 1 h ([1]; lacrimal glands, 1 h Blocked (co-injection of 2-PMPA, 0.5 mg), read-out: Lacrimal Glands uptake): 0.04 ± 0.02 %ID/g
tissue uptake at 1 h [1, 11]: 0.1 ± 0.06 %ID/g
tissue uptake at 1 h ([1]; large intestine, 1 h Blocked (co-injection of 2-PMPA, 0.5 mg), read-out: Large Intestine uptake): 0.26 ± 0.1 %ID/g
tissue uptake at 1 h ([1]; large intestine, 1 h post-injection, read-out: Large Intestine uptake): 0.2 ± 0.1 %ID/g
tissue uptake at 1 h ([1]; liver, 1 h Blocked (co-injection of 2-PMPA, 0.5 mg), read-out: Liver uptake): 0.67 ± 0.07 %ID/g
tissue uptake at 1 h [1, 12]: 0.47 ± 0.06 %ID/g
tissue uptake at 1 h ([1]; lncap tumor, 1 h Blocked (co-injection of 2-PMPA, 0.5 mg), read-out: LNCaP Tumor uptake): 2.11 ± 0.02 %ID/g
tissue uptake at 1 h [1, 13]: 8.01 ± 0.9 %ID/g
tissue uptake at 1 h ([1]; lungs, 1 h Blocked (co-injection of 2-PMPA, 0.5 mg), read-out: Lungs uptake): 1.22 ± 0.17 %ID/g
tissue uptake at 1 h [1, 14]: 0.96 ± 0.19 %ID/g
tissue uptake at 1 h ([1]; muscle, 1 h Blocked (co-injection of 2-PMPA, 0.5 mg), read-out: Muscle uptake): 0.2 ± 0.02 %ID/g
tissue uptake at 1 h [1, 15]: 0.34 ± 0.24 %ID/g
tissue uptake at 1 h ([1]; pancreas, 1 h Blocked (co-injection of 2-PMPA, 0.5 mg), read-out: Pancreas uptake): 0.32 ± 0.04 %ID/g
tissue uptake at 1 h [1, 16]: 0.21 ± 0.05 %ID/g
tissue uptake at 1 h ([1]; salivary glands, 1 h Blocked (co-injection of 2-PMPA, 0.5 mg), read-out: Salivary Glands uptake): 0.49 ± 0.14 %ID/g
tissue uptake at 1 h [1, 17]: 0.52 ± 0.18 %ID/g
tissue uptake at 1 h ([1]; seminal gland, 1 h Blocked (co-injection of 2-PMPA, 0.5 mg), read-out: Seminal Gland uptake): 0.22 ± 0.06 %ID/g
tissue uptake at 1 h [1, 18]: 0.15 ± 0.04 %ID/g
tissue uptake at 1 h ([1]; small intestine, 1 h Blocked (co-injection of 2-PMPA, 0.5 mg), read-out: Small Intestine uptake): 2.4 ± 0.36 %ID/g
tissue uptake at 1 h [1, 19]: 2.01 ± 0.6 %ID/g
tissue uptake at 1 h ([1]; spleen, 1 h Blocked (co-injection of 2-PMPA, 0.5 mg), read-out: Spleen uptake): 0.31 ± 0.06 %ID/g
tissue uptake at 1 h [1, 20]: 0.36 ± 0.09 %ID/g
tissue uptake at 1 h ([1]; stomach, 1 h Blocked (co-injection of 2-PMPA, 0.5 mg), read-out: Stomach uptake): 0.36 ± 0.15 %ID/g
tissue uptake at 1 h [1, 21]: 0.19 ± 0.11 %ID/g
tissue uptake at 1 h ([1]; testes, 1 h Blocked (co-injection of 2-PMPA, 0.5 mg), read-out: Testes uptake): 0.41 ± 0.05 %ID/g
tissue uptake at 1 h [1, 22]: 0.29 ± 0.05 %ID/g
tissue uptake at 1 h ([1]; thyroid, 1 h Blocked (co-injection of 2-PMPA, 0.5 mg), read-out: Thyroid uptake): 0.48 ± 0.03 %ID/g
tissue uptake at 1 h [1, 23]: 0.38 ± 0.16 %ID/g

O=C(O)CC[C@H](NC(=O)N[C@@H](CCCCNC(=O)c1ccc(F)nc1)C(=O)O)C(=O)O [^18F-DCFPyL]
liver uptake [2]: high

O=C(O)CCC[C@H](NC(=O)N[C@@H](CCCCNC(=O)[C@H](Cc1c2ccccc2cc2ccccc12)NC(=O)[C@H]1CC[C@H](CNC(=O)[C@H](CCCCNC(=O)c2ccc(F)nc2)NC(=O)CN(CC(=O)O)CC(=O)O)CC1)C(=O)O)C(=O)O [^18F-KL01040]
tissue uptake at 1 h [1, 4]: 1.05 ± 0.26 %ID/g
tissue uptake at 1 h [1, 5]: 1.96 ± 0.37 %ID/g
tissue uptake at 1 h [1, 6]: 0.6 ± 0.18 %ID/g
tissue uptake at 1 h [1, 7]: 0.11 ± 0.08 %ID/g
tissue uptake at 1 h [1, 8]: 0.61 ± 0.15 %ID/g
tissue uptake at 1 h [1, 9]: 0.56 ± 0.14 %ID/g
tissue uptake at 1 h [1, 10]: 33.2 ± 10.1 %ID/g
tissue uptake at 1 h [1, 11]: 0.23 ± 0.06 %ID/g
tissue uptake at 1 h [1, 12]: 0.58 ± 0.15 %ID/g
tissue uptake at 1 h [1, 13]: 11.2 ± 2.06 %ID/g
tissue uptake at 1 h [1, 14]: 1.56 ± 0.4 %ID/g
tissue uptake at 1 h [1, 15]: 0.29 ± 0.06 %ID/g
tissue uptake at 1 h [1, 16]: 0.38 ± 0.05 %ID/g
tissue uptake at 1 h [1, 17]: 0.79 ± 0.11 %ID/g
tissue uptake at 1 h [1, 18]: 0.26 ± 0.06 %ID/g
tissue uptake at 1 h [1, 19]: 2.54 ± 0.5 %ID/g
tissue uptake at 1 h [1, 20]: 0.83 ± 0.41 %ID/g
tissue uptake at 1 h [1, 21]: 0.2 ± 0.07 %ID/g
tissue uptake at 1 h ([1]; tail, 1 h post-injection, read-out: Tail uptake): 1.31 ± 0.41 %ID/g
tissue uptake at 1 h [1, 22]: 0.47 ± 0.07 %ID/g
tissue uptake at 1 h [1, 23]: 0.6 ± 0.06 %ID/g
